Assay results from patent publication US7494984B2, “Substituted imidazo[1,2-a]pyrimidines as HIV viral DNA integrase inhibitors” (priority 2005, dated 2009).
pIC50: −log10 of the molar value.

Experiments:
[1] = biological target: T1, HIV-integrase (Human immunodeficiency virus type 1 group M subtype B, UniProt P12497); assay: HIV-Integrase Inhibition Activity (SPA strand transfer assay); assay type: biochemical; details: recombinant integrase, biotin labeled substrate DNA on SPA beads, P33 labeled target DNA; read-out: Activity (IC50 class, HIV-integrase inhibition)
T1 construct: Recombinant integrase (0.26 ng) was incubated with the beads
Description: HIV-Integrase Inhibition Activity. To evaluate in-vitro activity against HIV-integrase, 5 pmole of biotin labeled substrate DNA was bound to 100 μg of Streptavidin coated PVT SPA beads (Amersham Pharmacia Biotech). Recombinant integrase (0.26 ng) was incubated with the beads for 90 min at 37° C. Unbound enzyme was removed by washing the complex followed by addition of inhibitors and 0.1 fmol of P33 labeled target DNA. The reaction was stopped by adding EDTA to a final concentration of 10 mM. Samples were counted in TopCountNXT (Packard) and the CPM was used as a measure of integration. The reaction condition was as described in A. Engelman and R. Craigie, J. Virol. 69, 5908-5911 (1995). The sequences of substrate and target DNA were described in Nucleic Acid Research 22,1121-1122 (1994). Activity equal to A refers to a compound having IC50=0.005 to 0.010 μM while B and C denote compounds having IC50=0.010 to 0.030 μM and IC50>0.030 μM respectively.

Compound	pIC50 [1]	melting point
CNC(=O)c1cc(F)ccc1CNC(=O)c1nc2n(c(=O)c1O)CCN2Cc1ccccc1 [Example 18, N-(4-Fluoro-2-(methylcarbamoyl)benzyl)-1-benzyl-6-hydroxy-5-oxo-1,2,3,5-tetrahydroimidazo[1,2-a]pyrimidine-7-carboxamide]	7.52 to 8.00	206 °C (dec.)
O=C(NCc1ccc(F)cc1-n1cncn1)c1nc2n(c(=O)c1O)CCN2Cc1ccccc1 [Example 19, N-(4-Fluoro-2-(1H-1,2,4-triazol-1-yl)benzyl)-1-benzyl-6-hydroxy-5-oxo-1,2,3,5-tetrahydroimidazo[1,2-a]pyrimidine-7-carboxamide]	7.52 to 8.00	242 °C (dec.)
COCCN1CCn2c1nc(C(=O)NCc1ccc(F)cc1)c(O)c2=O [Example 29, N-(4-Fluorobenzyl)-6-hydroxy-1-(2-methoxyethyl)-5-oxo-1,2,3,5-tetrahydroimidazo[1,2-a]pyrimidine-7-carboxamide]	7.52 to 8.00	166 °C
O=C(NCc1ccc(F)cc1)c1nc2n(c(=O)c1O)CCN2CCO [Example 30, N-(4-Fluorobenzyl)-6-hydroxy-1-(2-hydroxyethyl)-5-oxo-1,2,3,5-tetrahydroimidazo[1,2-a]pyrimidine-7-carboxamide]	7.52 to 8.00	203 °C
O=C(NCc1ccc(F)cc1-n1cncn1)c1nc2n(c(=O)c1O)CCN2CCO [Example 31, N-(4-Fluoro-2-(1H-1,2,4-triazol-1-yl)benzyl)-6-hydroxy-(2-hydroxyethyl)-5-oxo-1,2,3,5-tetrahydroimidazo[1,2-a]pyrimidine-7-carboxamide]	7.52 to 8.00	220 to 222 °C
